Experimental data from PMC4734333, “Structural characterisation of human galectin-4 N-terminal carbohydrate recognition domain in complex with glycerol, lactose, 3′-sulfo-lactose, and 2′-fucosyllactose” (Scientific Reports, 2016).

Key:
Format in all cases: binding
[1] = molecular target: T1, galectin-4N (human galectin-4 N-terminal CRD) (Homo sapiens, UniProt P56470); assay: X-ray crystal structure ([…] Å) and competitive fluorescence anisotropy
T1 construct: gene LGALS4
T1 sequence (P56470 1-154): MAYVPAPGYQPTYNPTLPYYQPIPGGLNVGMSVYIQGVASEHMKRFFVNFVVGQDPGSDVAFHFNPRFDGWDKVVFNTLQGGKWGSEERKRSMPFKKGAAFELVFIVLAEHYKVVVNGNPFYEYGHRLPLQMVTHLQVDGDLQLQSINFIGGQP

[2] = molecular target: T1, galectin-4N (human galectin-4 N-terminal CRD); assay: as above; remark: listed apart in the source
[3] = molecular target: T2, galectin-4N (human galectin-4 N-terminal CRD) (Homo sapiens, UniProt P56470); assay: competitive fluorescence anisotropy
T2 construct: gene LGALS4; N-terminal CRD (galectin-4N)
T2 sequence (P56470 1-154 limits assumed): T1 sequence (P56470 1-154)

[4] = molecular target: T1, galectin-4N (human galectin-4 N-terminal CRD); assay: X-ray crystal structure ([…] Å) and competitive fluorescence anisotropy; remark: listed apart in the source

With `OC[C@H]1O[C@@H](O[C@H]2[C@H](O)[C@@H](O)C(O)O[C@@H]2CO)[C@H](O)[C@@H](O)[C@H]1O` (stereo partly shown) [lactose] the Kd [1] was 1.3 mM.

Compound `C[C@@H]1O[C@@H](O[C@H]2[C@H](O[C@H]3[C@H](O)[C@@H](O)C(O)O[C@@H]3CO)O[C@H](CO)[C@H](O)[C@@H]2O)[C@@H](O)[C@H](O)[C@@H]1O` (stereo partly shown) [2′FL, 2′-fucosyllactose] has a Kd [2] of 380 µM.

Compound `CC(=O)N[C@H]1[C@@H](O[C@H]2[C@@H](O)[C@@H](CO)O[C@@H](O[C@H]3[C@H](O)[C@@H](O)C(O)O[C@@H]3CO)[C@@H]2O[C@@H]2O[C@@H](C)[C@@H](O)[C@@H](O)[C@@H]2O)O[C@H](CO)[C@H](O)[C@@H]1O` (stereo partly shown) [A-tetrasaccharide] has a Kd [3] of 164 µM.

With `O=S(=O)(O)O[C@H]1[C@@H](O)[C@@H](CO)O[C@@H](O[C@H]2[C@H](O)[C@@H](O)C(O)O[C@@H]2CO)[C@@H]1O` (stereo partly shown) [3′SuL, lactose-3′-sulfate] the Kd [4] was 510 µM.
